Converted amounts (≈) assume the structure as drawn.
settings: buffer; pH 7.4; 200.0 µM

| Structure (SMILES) | solubility kinetic |
| --- | --- |
| Cc1ccccc1Nc1nc(N)nc(CSc2nnc(C)n2C)n1 | > 51.4 µg/mL |
| Cc1oc(-c2ccccc2)cc1C(=O)NCc1ccncc1 | 36.7 µg/mL (≈ 126 µM) |
| O=C(Nc1ccccc1)c1ccc(=O)n(Cc2cccc(Cl)c2)c1 | 22.1 µg/mL (≈ 65.2 µM) |
| CC(C)Oc1cccc(C(=O)C2CCCN(C(=O)c3ccsc3)C2)c1 (stereo not drawn) | 44.8 µg/mL (≈ 125 µM) |
| CCOC(=O)c1c(C)[nH]c(C)c1C(=O)COC(=O)/C=C/c1ccccc1[N+](=O)[O-] | 6 µg/mL (≈ 15 µM) |
| COC(=O)c1ccc(-n2c(C)cc(C(=O)COC(=O)C3=COCCO3)c2C)cc1 | 3.7 µg/mL (≈ 9.26 µM) |
| CN(C1CCCCC1)S(=O)(=O)c1ccc(SCC(=O)C(C)(C)C)nc1 | 3.2 µg/mL (≈ 8.32 µM) |
| Cn1ccsc1=NC(=O)c1ccc([N+](=O)[O-])o1 | 18.4 µg/mL (≈ 72.7 µM) |
| Cc1ccc(C2N3CCCN23)cc1 (stereo not drawn) | > 26.1 µg/mL |
| CN(C(=S)NC(=O)c1ccccc1)C1CCCCC1 | > 41.5 µg/mL |
| Cc1ccc(F)cc1NC(=O)/C=C/c1ccc(S(=O)(=O)N2CCOCC2)cc1 | 1.8 µg/mL (≈ 4.45 µM) |
| CCOc1ccccc1-n1c(C)cc(C=O)c1C | > 36.5 µg/mL |
| CCN1C(=O)NC(c2ccccc2)(c2ccccc2)C1=O | < 0.3 µg/mL |
| O=c1[nH]c(C(F)(F)F)nc2ccc3ccccc3c12 | > 39.6 µg/mL |
| COc1ccc(COC(=O)CCc2c[nH]c3ccccc23)cc1F | 7.7 µg/mL (≈ 23.5 µM) |
| CCOc1ccc(CNC(=S)Nc2ccccc2)cc1Cl | 1.6 µg/mL (≈ 4.99 µM) |
| Cl.NCCC(=O)N1c2ccccc2Sc2ccccc21 | 29.9 µg/mL |
| CC(C)c1ccccc1NC(=O)COC(=O)c1cccnc1 | > 44.8 µg/mL |
| O=C(COC(=O)CNC(=O)c1ccc(Cl)c([N+](=O)[O-])c1)NC(=O)c1ccccc1 | 52.9 µg/mL (≈ 126 µM) |
| CCc1ccc(OC(=O)c2cncc(Br)c2)cc1 | 4 µg/mL (≈ 13.1 µM) |
| Cc1cccn2cc(-c3ccc4c(c3)NC(=O)CO4)nc12 | 7.9 µg/mL (≈ 28.3 µM) |
| CC(=O)c1c(C)[nH]c(C(=O)Nc2cccc(S(=O)(=O)N3CCCC3)c2)c1C | 7 µg/mL (≈ 18 µM) |
| COC(=O)C1=C(C)N(c2ccc(OC)cc2)C(C)=C(C(=O)OC)C1c1ccccc1 | 1 µg/mL (≈ 2.45 µM) |
| CC(C)NC(=O)N(Cc1ccc(Cl)cc1)Cc1cccs1 | 37 µg/mL (≈ 115 µM) |

| Structure (SMILES) | solubility kinetic |
| --- | --- |
| CN(n1cnc2ccccc2c1=O)S(C)(=O)=O | > 38 µg/mL |
| COc1ccc(S(=O)(=O)Oc2cc(C(=S)N3CCOCC3)ccc2OC)cc1 | 25.4 µg/mL (≈ 60 µM) |
| CC(C)(C)C(=O)N1CCN(c2nc3ccc(Cl)cc3s2)CC1 | 2.3 µg/mL (≈ 6.81 µM) |
| FC(F)Oc1ccc(N=C2SCC3CCCCN23)cc1 (stereo not drawn) | 15.3 µg/mL (≈ 51.3 µM) |
| O=C(Nc1ccccn1)c1ccc(C(=O)c2ccccc2)cc1 | 21.6 µg/mL (≈ 71.4 µM) |
| O=C(CSc1nccn1-c1ccccc1)NCc1ccc(F)cc1 | 33.5 µg/mL (≈ 98.1 µM) |
| COc1ccccc1OCCn1ccnc1 | > 32.7 µg/mL |
| Cc1nc(SCC(=O)NCC2CCCO2)nc(C)c1C (stereo not drawn) | > 44.3 µg/mL |
| Cc1ccc(CNC(=O)COC(=O)c2cccnc2Cl)cc1 | 23.7 µg/mL (≈ 74.4 µM) |
| CN1C(=O)C2(OCC(C)([N+](=O)[O-])CO2)c2ccccc21 (stereo not drawn) | 21.7 µg/mL (≈ 78 µM) |
| O=C(CCc1ccccc1)Nc1sc2c(c1C(=O)O)CCCC2 | > 49.4 µg/mL |
| CN(CC(=O)Nc1c(Cl)cccc1Cl)C(=O)c1cccn1C | > 51 µg/mL |
| COc1ccc(OC)c(NC(=O)C2=C(C)NC(=O)NC2c2cccs2)c1 (stereo not drawn) | 25.3 µg/mL (≈ 67.7 µM) |
| COc1ccc(Cl)cc1NC(=O)Cn1c(C)csc1=O | 18.3 µg/mL (≈ 58.5 µM) |
| Cc1nc(C)c(-c2csc(Nc3ccccn3)n2)s1 | 10.2 µg/mL (≈ 35.4 µM) |
| COc1ccccc1NS(=O)(=O)c1cc(C(=O)N2CCCCCC2)ccc1C | 9.6 µg/mL (≈ 23.8 µM) |
| O=C(Nc1ccccc1)C1COc2ccccc2O1 (stereo not drawn) | 30.1 µg/mL (≈ 118 µM) |
| Cc1ccc(C)c(C(=O)COC(=O)CN2C(=O)C3C4CCC(C4)C3C2=O)c1 (stereo not drawn) | > 55.4 µg/mL |
| CSCc1ccc(C(=O)NC(C)c2ccc(-n3ccnc3)cc2)cc1 (stereo not drawn) | 42.1 µg/mL (≈ 120 µM) |
| COc1ccc(NS(=O)(=O)c2ccc(N3CCCCC3)c(NC(=O)C(C)NC(N)=O)c2)cc1 (stereo not drawn) | > 71.3 µg/mL |
| COCc1c(C(=O)N2CCc3ccccc32)oc2ccccc12 | 7.6 µg/mL (≈ 24.7 µM) |
| COc1ccc(NC(=O)CC2C(=O)NCCN2C(=O)c2ccccc2)cc1 (stereo not drawn) | > 55.1 µg/mL |
| O=[N+]([O-])c1ccc(Oc2cccc(C(F)(F)F)c2)nc1 | 3.5 µg/mL (≈ 12.3 µM) |
| CC(C)Oc1ccc(Cc2cnc(=S)[nH]c2N)cc1 | 15.4 µg/mL (≈ 55.9 µM) |

| Structure (SMILES) | solubility kinetic |
| --- | --- |
| Nc1ccccc1Sc1ccc(C(F)(F)F)cc1[N+](=O)[O-] | 5.6 µg/mL (≈ 17.8 µM) |
| COc1ccc(CC(=O)OCC(=O)Nc2ccc(Cl)cc2C)cc1 | 9 µg/mL (≈ 25.9 µM) |
| C[C@H](NC(=O)c1ccc(C(C)(C)C)cc1)C(=O)N1CCN(C/C=C/c2ccccc2)CC1 | 21.6 µg/mL (≈ 49.8 µM) |
| COc1ccc(C2(O)C(=O)Nc3ccc(C)cc32)cc1OC (stereo not drawn) | > 44.9 µg/mL |
| Cc1ccc(CN2CC(C(=O)Nc3ccncc3)CC2=O)cc1 (stereo not drawn) | > 46.4 µg/mL |
| O=C(NCC1CCCO1)c1cc(-c2ccccc2)nc2ccccc12 (stereo not drawn) | > 49.9 µg/mL |
| Cc1cc(C)c(NC(=O)C2CC(=O)N(C(C)C)C2)c(C)c1 (stereo not drawn) | > 43.3 µg/mL |
| Cc1cccc(NC(=S)NC(=O)C2CC2)c1 | > 35.1 µg/mL |
| Cc1cc(OCC(=O)N2CCCN(C)CC2)ccc1Cl | > 44.5 µg/mL |
| N#Cc1c(N2CCSCC2)nsc1-c1ccccc1Cl | 3.4 µg/mL (≈ 10.6 µM) |
| Cc1ccnc(NC(=O)c2ccc(Cl)cc2Cl)n1 | 31.7 µg/mL (≈ 112 µM) |
| Cc1ccc(NS(=O)(=O)c2ccc3c(c2)N(C)CCO3)cc1 | 36.1 µg/mL (≈ 113 µM) |
| Nc1nc(NCCOCCO)nc(NC2CCCCC2)c1[N+](=O)[O-] | > 51.1 µg/mL |
| Cc1ccc(S(=O)(=O)N2CCc3ccccc3C2)cc1C | < 0.6 µg/mL |
| CCCCOC(=O)c1ccc(NC(=O)C(=O)NCc2ccccn2)cc1 | 0.8 µg/mL (≈ 2.25 µM) |
| CC(C)(C)c1ccc(COn2ccnc2)cc1 | 27.1 µg/mL (≈ 118 µM) |
| Cc1ccccc1CC(=O)N1CCN(C(=O)C2CCCO2)CC1 (stereo not drawn) | > 47.5 µg/mL |
| O=C(CNC(=O)c1ccc(Cl)cc1Cl)OCc1cn2cc(Br)ccc2n1 | 29.7 µg/mL (≈ 65 µM) |
| Cc1ccc(NC(=O)c2ccc(COc3ccccc3)o2)nc1 | 16 µg/mL (≈ 51.9 µM) |
| COc1ccc(NC(=O)CN2CCN(c3c(C)cc(C)cc3C)CC2)cc1 | 3.9 µg/mL (≈ 10.6 µM) |
| O=C(Nc1ccc(F)cc1)c1ccc(S(=O)(=O)N2CCCC2)cc1 | 4.4 µg/mL (≈ 12.6 µM) |
| CC[N+](CC)(CC#CCO)CC#Cc1ccccc1.[Br-] | 44.2 µg/mL |
| Cc1cnc([N+](=O)[O-])n1CCOC(=O)NC(=O)c1c(F)cccc1F | > 53.1 µg/mL |
| Cc1cccc(N2CC(C)Cn3c2nc2c3c(=O)[nH]c(=O)n2C)c1 (stereo not drawn) | 27 µg/mL (≈ 83 µM) |

| Structure (SMILES) | solubility kinetic |
| --- | --- |
| COc1ccccc1/C=C(\C#N)C(=O)c1cccn1C | 9.7 µg/mL (≈ 36.4 µM) |
| O=C(c1cc(-c2cccc(Cl)c2)on1)N1CCOCC1 | 20.1 µg/mL (≈ 68.7 µM) |
| O=C(Nc1ccc(Cl)cn1)c1ccc2[nH]c(=O)c(=O)[nH]c2c1 | 11.7 µg/mL (≈ 36.9 µM) |
| CCOC(=O)C1CCN(S(=O)(=O)c2c(Cl)ccc3nonc23)CC1 | > 56.1 µg/mL |
| COc1ccc(N2C(=O)CC(C)(C)CC2=O)cc1OC | > 41.6 µg/mL |
| COc1ccc(NC(=O)CSc2nc3ccccc3c(=O)n2C)cc1 | < 0.3 µg/mL |
| COc1cc(C#N)ccc1OCC(=O)NCCC1=CCCCC1 | 3.7 µg/mL (≈ 11.8 µM) |
| CC(NC(=O)CN1C(=O)NC2(CCCC2)C1=O)c1ccc(Cl)cc1Cl (stereo not drawn) | 51.8 µg/mL (≈ 135 µM) |
| CC(=O)c1c(C)[nH]c(C(=O)COC(=O)c2ccc(C)s2)c1C | 3.5 µg/mL (≈ 11 µM) |
| Cc1ccc(N=Cc2c(O)c3ccccc3n(C)c2=O)cc1 | 3.3 µg/mL (≈ 11.3 µM) |
| Nc1nonc1OCCCCOc1nonc1N | 21.1 µg/mL (≈ 82.4 µM) |
| O=C(c1ccsc1)N1CCCC(Nc2ccc(F)c(F)c2)C1 (stereo not drawn) | 44.5 µg/mL (≈ 138 µM) |
| COc1ccccc1OCCNC(=O)Nc1ccc(Br)cc1 | 1.3 µg/mL (≈ 3.56 µM) |
| O=C1C/C(=C\c2c(F)cccc2Cl)N2CCC1CC2 | 39.7 µg/mL (≈ 142 µM) |
| CC1SC2(NC1=O)C1CC3CC(C1)CC2C3 (stereo not drawn) | 3.4 µg/mL (≈ 14.3 µM) |
| CCCOC(=O)C1=C(C)NC(=O)NC1c1ccc(Br)s1 (stereo not drawn) | 3.1 µg/mL (≈ 8.63 µM) |
| COCCCNc1ncnc2c1nc1n2CCCC1 | > 39.2 µg/mL |
| CSc1ccccc1NC(=O)Cc1ccccc1[N+](=O)[O-] | 5.7 µg/mL (≈ 18.9 µM) |
| CCN(CC)c1ccc(N2C(=O)/C(=C/c3ccccn3)SC2=S)cc1 | < 0.3 µg/mL |
| O=C(NCCN1CCNCC1)c1ccccc1O | > 37.4 µg/mL |
| O=C(NCc1ccccc1Cl)NCc1ccccc1Cl | 1.1 µg/mL (≈ 3.56 µM) |
| CCn1c(/C=C/c2ccccc2Cl)nc2ccccc2c1=O | 1.7 µg/mL (≈ 5.47 µM) |
| Fc1ccc(F)c(NC2=NCCCCC2)c1 | > 33.6 µg/mL |
| CC(C)(C)OC(=O)NCCCCCO | > 30.5 µg/mL |

| Structure (SMILES) | solubility kinetic |
| --- | --- |
| Cn1c(SCC2CCCO2)nnc1-c1cccc([N+](=O)[O-])c1 (stereo not drawn) | > 48.1 µg/mL |
| Cc1cc(C)c(C)c(S(=O)(=O)NCC(=O)Nc2ccc(F)cc2)c1C | 3.9 µg/mL (≈ 10.7 µM) |
| O=C(c1cccs1)N1CCN(c2ncc(Br)cn2)CC1 | 9.5 µg/mL (≈ 26.9 µM) |
| CCCc1cc(=O)[nH]c(SCC(=O)Nc2ccc(S(=O)(=O)N3CCCC3)cc2)n1 | 29 µg/mL (≈ 66.4 µM) |
| O=C(OCCN1C(=O)c2ccccc2C1=O)Oc1ccccc1 | 37.1 µg/mL (≈ 119 µM) |
| Cc1nn(-c2ccccn2)c(N)c1N=O | > 30.5 µg/mL |
| CCc1nc(C)cn1S(=O)(=O)c1ccc(Br)cc1 | > 49.4 µg/mL |
| CCCC12CN3CC(C)(CN(C1)C3c1cccs1)C2=O (stereo not drawn) | 39.1 µg/mL (≈ 135 µM) |
| COc1ccc(NC(=O)CCC(=O)c2cccs2)cc1Cl | 6.5 µg/mL (≈ 20.1 µM) |
| CC(C)(C)c1ccc(NC(=S)NCc2cccnc2)cc1 | 40.8 µg/mL (≈ 136 µM) |
| CCOC(=O)c1cc(C#N)c(Nc2ccccc2OC)nc1C(F)(F)F | < 0.3 µg/mL |
| S=C(Nc1ccc(Cl)cc1)Nc1ccc2c(c1)OCCO2 | 8.9 µg/mL (≈ 27.7 µM) |
| C[C@@H]1NC(=O)/C(=C\c2ccccc2Cl)NC1=O | 12.8 µg/mL (≈ 51.1 µM) |
| CCc1cccc(C)c1NS(=O)(=O)c1cccs1 | 14.6 µg/mL (≈ 51.9 µM) |
| NS(=O)(=O)c1ccc(NC(=S)N2CCCC2)cc1 | > 42.8 µg/mL |
| O=S(=O)(NCc1cccs1)c1ccc(Br)cc1 | 11.6 µg/mL (≈ 34.9 µM) |
| c1coc(CN2CNc3nc4ccccc4n3C2)c1 | 35.2 µg/mL (≈ 138 µM) |
| NC(=O)C1CCCN(C(=O)CNC(=O)C23CC4CC(CC(C4)C2)C3)C1 (stereo not drawn) | 38.3 µg/mL (≈ 110 µM) |
| O=C(Nc1cc(Cl)ccc1N1CCOCC1)c1ccco1 | 3.5 µg/mL (≈ 11.4 µM) |
| Cc1ccc(OCC(=O)N2CC(C)CC(C)C2)c([N+](=O)[O-])n1 (stereo not drawn) | > 46.1 µg/mL |
| O=C(c1ccccn1)N1CCN(S(=O)(=O)c2ccccc2)CC1 | > 49.7 µg/mL |
| C=CCn1c(O)c(C(CC)=Nc2ccc(NC(C)=O)cc2)c(=O)[nH]c1=O | > 53.5 µg/mL |
